Here are results for 22 compounds from patent publication US11312727B1, “Macrocyclic flu endonuclease inhibitors” (Janssen BioPharma, Inc., priority 2018, dated 2022).

For data set [1], the system named is Influenza strain A549 A/WSN/33 (H1N1). Nature of the data set: microbe, parasite or virus in culture. The class given is cell-based. Conditions: Influenza A virus, A549, 20 h, A549 cells, influenza A/WSN/33 (H1N1), 20 hours incubation; read-out: A549_A(H1N1) EC50.
Data set [2] can be described thus: in vitro. Conditions: human, CC50, uninfected A549 cells, CellTiter-Glo.

Bounds are passed on as bounds.

The EC50 is the midpoint of the concentration-response curve. A word on the CC50: it is the concentration at which the toxic effect on the cells reaches its halfway point. A low value points to harm at low concentration. On to `CC(C)(C)[C@H]1/C=C/COc2cccc3c2[C@@H](c2ccccc2SC3)N2CN1C(=O)c1c(O)c(=O)ccn12` (single isomer, unassigned) [Compound 157A, (9*R,17a*S,*E)-9-(tert-butyl)-12-hydroxy-2,6,9,17a-tetrahydro-3,4-(epiprop[1]en[1]yl[3]ylidene)-10,17-methanobenzo[6,7]thiepino[4,5-c]pyrido[1,2-f][1]oxa[5,6,9]triazacyclotridecine-11,13-dione], for which the EC50 in data set [1] worked out at 1.3 nM. In addition, the CC50 in data set [2] was over 100 nM.

With `O=C1c2c(O)c(=O)ccn2N2CN1C/C=C\COc1c(F)cccc1[C@@H]2c1cccc(F)n1` (single isomer, unassigned) [Compound 104A, (18*R,*Z)-4-fluoro-18-(6-fluoropyridin-2-yl)-12-hydroxy-6,9-dihydro-18H-10,17-methanobenzo[b]pyrido[1,2-f][1]oxa[5,6,9]triazacyclotridecine-11,13-dione], the EC50 in data set [1] was 10.7 nM. Moreover, the CC50 in data set [2] is over 200 nM.

In the case of `O=C1c2c(O)c(=O)ccn2N2CN1CCCCOc1ccc(F)cc1[C@H]2c1ccccc1` (single isomer, unassigned) [Compound 30A, (18*R)-2-fluoro-12-hydroxy-18-phenyl-6,7,8,9-tetrahydro-18H-10,17-methanobenzo[b]pyrido[1,2-f][1]oxa[5,6,9]triazacyclotridecine-11,13-dione], the 50% effective concentration (EC50) in data set [1] was over 1000 nM. This compound also had a CC50 in data set [2] of over 2000 nM.

As for `O=C1c2c(O)c(=O)ccn2N2CN1C/C=C\CCc1ccncc1[C@H]2c1ccccc1` (single isomer, unassigned) [Compound 35A, (18*R,*Z)-12-hydroxy-18-phenyl-5,6,9,18-tetrahydro-10,17-methanodipyrido[1,2-b:4′,3′-k][1,2,5]triazacyclotridecine-11,13-dione], the EC50 in data set [1] stood at 69 nM. In data set [2], the CC50 was over 2000 nM.

On to `O=C1c2c(O)c(=O)ccn2N2CN1C[C@@H]1C[C@H]1COc1c(F)cccc1[C@@H]2c1ccccc1` (single isomer, unassigned) [Compound 125BA, (1a*S,8*R,17a*S)-4-fluoro-14-hydroxy-8-phenyl-1a,2,17,17a-tetrahydro-1H,8H-9,16-methanobenzo[b]cyclopropa[k]pyrido[1,2-f][1]oxa[5,6,9]triazacyclotridecine-13,15-dione], for which, in data set [1], the EC50 is over 100 nM. The same compound registered a 50% cytotoxic concentration (CC50) in data set [2] of over 200 nM.

For `O=C1c2c(O)c(=O)ccn2N2CN1[C@H](C1CC1)/C=C/COc1c(ccc(F)c1F)[C@@H]2c1ccccc1` (single isomer, unassigned) [Compound 152AB, (9*R,18*S,*E)-9-cyclopropyl-3,4-difluoro-12-hydroxy-18-phenyl-6,9-dihydro-18H-10,17-methanobenzo[b]pyrido[1,2-f][1]oxa[5,6,9]triazacyclotridecine-11,13-dione], the EC50 in data set [1] was over 50 nM. The compound further gave a CC50 in data set [2] of over 100 nM.

Consider `CN1Cc2ccccc2C(c2ccccc2)N2CN(CCC1=O)C(=O)c1c(O)c(=O)ccn12` (centres unmarked) [Compound 50, 12-hydroxy-6-methyl-18-phenyl-5,8,9,18-tetrahydro-10,17-methanobenzo[k]pyrido[1,2-b][1,2,5,9]tetraazacyclotridecine-7,11,13(6H)-trione], for which the EC50 in data set [1] was over 1000 nM. The same compound yielded a CC50 in data set [2] of over 2000 nM.

Regarding `CC[C@@H]1/C=C/COc2c(ccc(F)c2F)[C@@H](c2ccccc2)N2CN1C(=O)c1c(O)c(=O)ccn12` [Compound 101AB, (9R,18R,E)-9-ethyl-3,4-difluoro-12-hydroxy-18-phenyl-6,9-dihydro-18H-10,17-methanobenzo[b]pyrido[1,2-f][1]oxa[5,6,9]triazacyclotridecine-11,13-dione], in data set [1], the EC50 stood at 1.3 nM. The compound also yielded a CC50 in data set [2] of over 200 nM.

Take `O=C1c2c(O)c(=O)ccn2N2CN1C/C=C/COc1cccc3c1[C@H]2c1ccccc1S(=O)(=O)C3` [Compound 82, (17aS,E)-12-hydroxy-2,6,9,17a-tetrahydro-3,4-(epiprop[1]en[1]yl[3]ylidene)-10,17-methanobenzo[6,7]thiepino[4,5-c]pyrido[1,2-f][1]oxa[5,6,9]triazacyclotridecine-11,13-dione 1,1-dioxide]: in data set [1], the EC50 was found to be 71 nM. The compound further had a CC50 in data set [2] of over 1000 nM.

On to `CC[C@@H]1CCCOc2c(ccc(F)c2F)[C@H](c2ccccc2)N2CN1C(=O)c1c(O)c(=O)ccn12` (single isomer, unassigned) [Compound 164B, (9*R,18*S)-9-ethyl-3,4-difluoro-12-hydroxy-18-phenyl-6,7,8,9-tetrahydro-18H-10,17-methanobenzo[b]pyrido[1,2-f][1]oxa[5,6,9]triazacyclotridecine-11,13-dione], for which, in data set [1], the EC50 amounted to 2.4 nM. For the same compound, the CC50 in data set [2] was over 100 nM.

For the compound `O=C1c2c(O)c(=O)ccn2N2CN1C1(/C=C/COc3cccc4c3[C@H]2c2ccccc2SC4)CC1` (single isomer, unassigned) [Compound 107B, (17a′*S,*E)-12′-hydroxy-2′,17a′-dihydro-6′H-spiro[cyclopropane-1,9′-[3,4](epiprop[1]en[1]yl[3]ylidene)[10,17]methanobenzo[6,7]thiepino[4,5-c]pyrido[1,2-f][1]oxa[5,6,9]triazacyclotridecine]-11′,13′-dione], the EC50 in data set [1] was 1 nM. In data set [2], this compound returned a CC50 of over 100 nM.

Turning to `CC[C@H]1/C=C/COc2c(Cl)cccc2[C@@H](c2ccccc2)N2CN1C(=O)c1c(O)c(=O)ccn12` (single isomer, unassigned) [Compound 98BA, (9*S,18*R,E)-4-chloro-9-ethyl-12-hydroxy-18-phenyl-6,9-dihydro-18H-10,17-methanobenzo[b]pyrido[1,2-f][1]oxa[5,6,9]triazacyclotridecine-11,13-dione], the concentration giving a half-maximal response (EC50) in data set [1] stood at 830 nM. Also, the CC50 in data set [2] stood at 26400 nM.

Turning to `O=C1c2c(O)c(=O)ccn2N2CN1CC/C=C/COc1cc(F)c(F)c3c1[C@@H]2c1ccccc1SC3` (single isomer, unassigned) [Compound 88C, (23b*R, E)-16,17-difluoro-6-hydroxy-10,13,18,23b-tetrahydro-9H-1,8-methano[1]benzothiepino[5,4,3-lm]pyrido[2,1-i][1,7,10,11]benzoxatriazacyclotetradecine-5,7-dione], the EC50 in data set [1] is over 500 nM. This compound also yielded a CC50 in data set [2] of over 1000 nM.

For the compound `COC[C@H]1/C=C/COc2c(ccc(F)c2F)[C@H](c2ccccc2)N2CN1C(=O)c1c(O)c(=O)ccn12` (single isomer, unassigned) [Compound 153AB, (9*R,18*S,*E)-3,4-difluoro-12-hydroxy-9-(methoxymethyl)-18-phenyl-6,9-dihydro-18H-10,17-methanobenzo[b]pyrido[1,2-f][1]oxa[5,6,9]triazacyclotridecine-11,13-dione], in data set [1], the EC50 was over 50 nM. In data set [2], this compound gave a CC50 of over 100 nM.

On to `O=C1c2c(O)c(=O)ccn2N2CN1CC/C=C/COc1ccccc1[C@H]2c1ccccc1` [Compound 10B, (2R,E)-15-hydroxy-2-phenyl-12,13,14,16-tetrahydro-11H-4-oxa-1(1,3)-pyrido[2,1-f][1,2,4]triazina-3(1,2)-benzenacyclononaphan-6-ene-14,16-dione], for which the EC50 in data set [1] amounted to 13 nM. Further, the CC50 in data set [2] was over 2000 nM.

Take `C/C1=C/COc2ccccc2[C@@H](c2ccccc2)N2CN(C1)C(=O)c1c(O)c(=O)ccn12` (single isomer, unassigned) [Compound 38A, (18*R,Z)-12-hydroxy-8-methyl-18-phenyl-6,9-dihydro-18H-10,17-methanobenzo[b]pyrido[1,2-f][1]oxa[5,6,9]triazacyclotridecine-11,13-dione]: the EC50 in data set [1] was over 1000 nM. Moreover, the half-maximal cytotoxic concentration (CC50) in data set [2] was over 2000 nM.

Consider `O=C1c2c(O)c(=O)ccn2N2CN1C/C=C\COc1cc(F)c(F)cc1[C@@H]2c1ccccn1` (single isomer, unassigned) [Compound 70A, (18*R,*Z)-2,3-difluoro-12-hydroxy-18-(pyridin-2-yl)-6,9-dihydro-18H-10,17-methanobenzo[b]pyrido[1,2-f][1]oxa[5,6,9]triazacyclotridecine-11,13-dione], for which the EC50 in data set [1] was over 10000 nM. Besides, the CC50 in data set [2] was over 20000 nM.

As to `CC[C@H]1/C=C/COc2c(F)cccc2[C@H](c2ccccc2)N2CN1C(=O)c1c(O)c(=O)ccn12` (single isomer, unassigned) [Compound 85BA, (9*S,18*S,E)-9-ethyl-4-fluoro-12-hydroxy-18-phenyl-6,9-dihydro-18H-10,17-methanobenzo[b]pyrido[1,2-f][1]oxa[5,6,9]triazacyclotridecine-11,13-dione], the EC50 in data set [1] was over 500 nM. In data set [2], this compound returned a CC50 of over 1000 nM.

As to `O=C1c2c(O)c(=O)ccn2N2CN1CC/C=C\COc1cccc3c1[C@@H]2c1ccccc1CC3` (single isomer, unassigned) [Compound 28B], in data set [1], the EC50 came to 6 nM. Moreover, the CC50 in data set [2] was over 400 nM.

On to `O=C1c2c(O)c(=O)ccn2N2CN1CCC/C=C\Cc1ccccc1C2c1ccccn1` (centres unmarked) [Compound 15, (Z)-15-hydroxy-2-(pyridin-2-yl)-12,13,14,16-tetrahydro-11H-1(1,3)-pyrido[2,1-f][1,2,4]triazina-3(1,2)-benzenacyclononaphan-5-ene-14,16-dione], for which the EC50 in data set [1] stood at 635 nM. Besides, the CC50 in data set [2] was over 20000 nM.

Turning to `O=C1c2c(O)c(=O)ccn2N2CN1C/C=C\COc1ccccc1[C@@H]2c1ccc(F)c(F)c1` (single isomer, unassigned) [Compound 45B, (18*S,Z)-18-(3,4-difluorophenyl)-12-hydroxy-6,9-dihydro-18H-10,17-methanobenzo[b]pyrido[1,2-f][1]oxa[5,6,9]triazacyclotridecine-11,13-dione], in data set [1], the EC50 came out at 14 nM. The CC50 in data set [2] is over 200 nM.

Turning to `O=C1c2c(O)c(=O)ccn2N2CN1C/C=C\COc1c(ccc(Cl)c1Cl)[C@H]2c1ccccc1` (single isomer, unassigned) [Compound 103A, (18*R,Z)-3,4-dichloro-12-hydroxy-18-phenyl-6,9-dihydro-18H-10,17-methanobenzo[b]pyrido[1,2-f][1]oxa[5,6,9]triazacyclotridecine-11,13-dione], in data set [1], the EC50 was over 100 nM. In addition, in data set [2], the CC50 is over 200 nM.
